Laboratory results published in patent US20050202505A1, “Method to identify modulators for human 3alpha-hydroxysteroid dehydrogenase” (priority 2001, published 2005).

Columns and labels:
3a-HSD = target: T1, 3a-HSD (Homo sapiens, UniProt P52895); assay: NMR ligand binding (line broadening of ligand resonances in the presence of protein); settings: ligand resonances in the presence of 3a-HSD
T1 construct: Full length type III 3a-HSD cDNA is amplified by RT-PCR from human fetal brain total RNA; made in house; host or cells: E. coli BL21 (DE3)
T1 sequence (P52895 1-323): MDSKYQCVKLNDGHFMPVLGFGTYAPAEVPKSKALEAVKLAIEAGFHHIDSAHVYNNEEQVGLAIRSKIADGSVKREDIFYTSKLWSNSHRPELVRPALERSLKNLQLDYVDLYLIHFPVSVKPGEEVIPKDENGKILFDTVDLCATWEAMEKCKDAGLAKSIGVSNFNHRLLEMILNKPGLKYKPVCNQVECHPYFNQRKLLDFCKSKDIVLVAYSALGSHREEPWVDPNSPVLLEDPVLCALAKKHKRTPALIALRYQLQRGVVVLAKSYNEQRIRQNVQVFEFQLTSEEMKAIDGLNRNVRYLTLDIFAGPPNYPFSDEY
Text: Binding of natural ligands is a prerequisite for functionality. One method to detect ligand binding by NMR takes advantage of the increased transverse relaxation rates of the ligand protons when the ligand is bound. Increased line widths in the presence of protein thus indicates binding. Binding experiments of NADP to 3a-HSD are done and check by NMR. In the presence of 3a-HSD, the NADP peaks are broadened so much that they are hardly visible in the spectrum.
(§1) Even then, the maximum achievable concentration of allo-pregnanolone is only about 20 μM. […] Based on the NMR analysis, 3a-HSD appears well-folded and functional in respect to cofactor- and ligand-binding.

[1] = maximum achievable concentration in aqueous NMR sample with co-solvents; type: physicochemical; settings: water with 2% DMSO-d6 and 5% ethanol as co-solvents
Procedure: as §1

[2] = target: T2, recombinant type-3 human 3a-HSD (Homo sapiens, UniProt P52895); assay: functional in vitro assay, oxidation of 3H-ALLO to 3H-5α-DHP; type: biochemical; settings: NADP+, pH 7.4, 37° C., read-out: Ki OX
T2 construct: Full length type III 3a-HSD cDNA is amplified by RT-PCR from human fetal brain total RNA; made in house; host or cells: E. coli BL21 (DE3)
T2 sequence (P52895 1-323): T1 sequence (P52895 1-323)
Text: (§2) Materials: Steroid standards (>98% purity) were purchased from Sigma Chemical Co. ^3H-allopregnanolone (64 Ci/mmol, [9, 11, 12-^3H(N)]-allopregnanolone, herein after referred to as ^3H-ALLO) was purchased from New England Nuclear. ^3H-5α-dihydroprogesterone (^3H-5α-DHP) was synthesized in our lab using an enzymatic conversion of ^3H-ALLO to ^3H-5α-DHP by the 3a-HSD (see Enzymatic reactions). The oxidation product ^3H-5α-DHP was isolated and purified by semi-preparative HPLC and confirmed by GC/MS. All solvents were of analytical grade (Merck) and were used without further purification.
(§3) Enzymatic reactions (oxidation of ^3H-ALLO to ^3H-5α-DHP and reduction of ^3H-5α-DHP to ^3H-ALLO): All enzymatic reactions were performed using pure recombinant type-3 human 3a-HSD expressed in E. coli and refolded and purified from bacterial inclusion bodies. ^3H-5a-DHP reduction was conducted in 100 μl reaction systems containing 100 mM sodium phosphate (pH 7.4), 4 μg of recombinant enzyme, 2 mM NADPH and 2.5 μM ^3H-5α-DHP (40 000 cpm) in 4% acetonitrile. Similarly, ^3H-ALLO oxidation was conducted in 100 μl reaction systems containing 100 mM sodium phosphate (pH 7.4), 4 μg of recombinant enzyme, 2 mM NADP^+ and 2.5 μM ^3H-ALLO (40 000 cpm) in 4% acetonitrile. Reactions were initiated by the addition of the respective substrate and were incubated at 37° C. for 25 min. […]

3a-HSD type III = target: T3, 3a-HSD type III (Homo sapiens, UniProt P52895); assay: NMR screening of fragment library; type: binding
T3 construct: Full length type III 3a-HSD cDNA is amplified by RT-PCR from human fetal brain total RNA; made in house; host or cells: E. coli BL21 (DE3)
T3 sequence (P52895 1-323): T1 sequence (P52895 1-323)
Text: NMR spectroscopy can be used to discover and design inhibitors of 3a-HSD type III. This is due to the well-known ability of NMR to detect interactions between ligands and a target protein, even if the interactions are only weak and have affinities in the millimolar range (Diercks, T.; Coles, M.; Kessler, H. Applications of NMR in drug discovery. Curr. Opin. Chem. Biol. 2001, 5, 285-291; Hajduk, P. J.; Meadows, R. P.; Fesik, S. W. NMR-based screening in drug discovery. Q. Rev. Biophys. 1999, 32, 211-240; Pellecchia, M.; Sem, D. S.; Wuthrich, K. NMR in drug discovery. Nature Reviews Drug Discovery 2002, 1, 211-219). For this purpose, a solution of 3a-HSD is added to a mixture of compounds, and NMR properties of the compounds, such as their relaxation rates, are measured and compared in the presence and absence of 3a-HSD. […] This effect can be enhanced by about a factor of 15 if side chains of 3a-HSD are spin-labeled with paramagnetic centers such as TEMPO (2,2,6,6-Tetramethylpiperidin-N-oxyl) or PROXYL (2,2,5,5-Tetramethylpyrrolidine-N-oxyl) (Jahnke, W.; Ruedisser, S.; Zurini, M. Spin Label Enhanced NMR Screening. J. Am. Chem. Soc. 2001, 123, 3149-3150; Jahnke, W. Spin labels as a tool to identify and characterize protein—ligand interactions by NMR spectroscopy. ChemBioChem 2002, 3, 167-173). […]

[3] = substrate: CC(=O)[C@H]1CC[C@H]2[C@@H]3CC[C@H]4C[C@H](O)CC[C@]4(C)[C@H]3CC[C@]12C; assay: functional in vitro assay, oxidation of 3H-ALLO to 3H-5α-DHP; type: biochemical; settings: other: oxidation of ALLO by the type-3 human 3a-HSD; pH 7.4; 37.0 °C
Text: as §2, §3

## NC(=O)c1ccc[n+]([C@@H]2O[C@H](COP(=O)([O-])OP(=O)(O)OC[C@H]3O[C@@H](n4cnc5c(N)ncnc54)[C@H](OP(=O)(O)O)[C@@H]3O)[C@@H](O)[C@H]2O)c1 [NADP]
3a-HSD
  binding to 3a-HSD detected by NMR line broadening: proves binding

## CC(=O)[C@H]1CC[C@H]2[C@@H]3CC[C@H]4C[C@H](O)CC[C@]4(C)[C@H]3CC[C@]12C [allopregnanolone, 3α-hydroxy-5a-pregnan-20-one]
3a-HSD
  binding to 3a-HSD detected by NMR line broadening: proven
[1]
  maximum achievable concentration: about 20 μM

## CC(=O)c1cc2ccccc2o1 [2-acetylbenzofuran]
[2]
  Ki: ~132 µM
3a-HSD type III; NMR screening hit
  binding to 3a-HSD: only weakly
3a-HSD type III; observed by NMR, severe line broadening
  dissociation rate: so slow

B1: recombinant type-3 human 3a-HSD (Homo sapiens) (protein)
chain: T1 sequence (P52895 1-323)
[3]
  Km: 4.9 µM
